Data as given in patent publication US5446130A, “Parathyroid hormone antagonists” (Mitsubishi Kasei Corporation, priority 1990, dated 1995).
Where no end group is shown, it is not given here.

Tested on: output of cAMP produced by 5×10^-9 M hPTH (1-34) in cultured mouse osteoblast MC3T3-E1
Experiment: Determination of PTH antagonism: inhibition of cAMP output induced by hPTH (1-34) in cultured mouse osteoblast MC3T3-E1
Format: cell-based
Experimental: PTH antagonism of the PTHrP derivatives (I) of the present invention was determined on the basis of the output of cAMP, using cultured mouse osteoblast MC3T3-E1.
To a multiwell-culture plate of 12-well were inoculated 1×10^5 cells/well of the cultured cells, and the plate was incubated at 37° C. under 95% air-5% CO2 atmosphere for 3 days after addition of α-modified MEM containing 10% semi-fetal bovine serum as a medium. Then, the medium was exchanged with α-modified MEM containing 1% bovine serum albumin and the cultured cells were incubated for 6 hours. The medium was replaced by α-modified MEM containing various concentrations of the compound of the present invention, 5×10^-9 M hPTH (1-34), 1% bovine serum albumin and 1 mM isobutylmethylxanthin, and the mixture was incubated for 1 hour. The medium was separated from the cells, and the medium was used as a sample for assaying cAMP. The cells were shaken with 90% n-propyl alcohol to extract cAMP according to Yamaguchi et al., J. Biol. Chem., 262, 7711-7718 (1987) for preparing another sample.
Assay of cAMP was performed using a commercially available cAMP-radioimmunoassay kit. […] Compound numbers in the tables correspond to those in Table 2.

[1] = Table 4, 50% inhibition of cAMP output by 5×10^-9 M hPTH (1-34), ratio to control Compound No. 15 = 1
[2] = Table 3, 50% inhibition of cAMP output by 5×10^-9 M hPTH (1-34), ratio to control [Tyr34]-hPTH (3-34)-NH2 = 1

Molecule | IC50 Ratio [1] | IC50 Ratio [2]
CC[C@H](C)[C@H](N)C(=O)N[C@@H](CCC(N)=O)C(=O)N[C@@H](CC(C)C)C(=O)N[C@@H](CCSC)C(=O)N[C@@H](Cc1c[nH]cn1)C(=O)N[C@@H](C)C(=O)N[C@@H](CCCCN)C(=O)NCC(=O)N[C@@H](CCCCN)C(=O)N[C@@H](CO)C(=O)N[C@H](C(=O)N[C@@H](CCC(N)=O)C(=O)N[C@@H](CC(=O)O)C(=O)N[C@@H](CC(C)C)C(=O)N[C@@H](CCCNC(=N)N)C(=O)N[C@@H](CCCNC(=N)N)C(=O)N[C@@H](CCCNC(=N)N)C(=O)N[C@@H](Cc1ccccc1)C(=O)N[C@@H](Cc1ccccc1)C(=O)N[C@@H](CC(C)C)C(=O)N[C@@H](Cc1c[nH]cn1)C(=O)N[C@@H](Cc1c[nH]cn1)C(=O)N[C@@H](CC(C)C)C(=O)N[C@H](C(=O)N[C@@H](C)C(=O)N[C@@H](CCC(=O)O)C(=O)N[C@H](C(=O)N[C@@H](Cc1c[nH]cn1)C(=O)N[C@H](C(=O)N[C@@H](C)C(N)=O)[C@@H](C)O)[C@@H](C)CC)[C@@H](C)CC)[C@@H](C)CC [Compound No. 17] | 1.17 | –
CCCCCCCCCCCCCC(=O)N[C@H](C(=O)N[C@@H](CCC(N)=O)C(=O)N[C@@H](CC(C)C)C(=O)N[C@@H](CCSC)C(=O)N[C@@H](Cc1c[nH]cn1)C(=O)N[C@@H](CC(=O)O)C(=O)N[C@@H](CCCCN)C(=O)NCC(=O)N[C@@H](CCCCN)C(=O)N[C@@H](CO)C(=O)N[C@H](C(=O)N[C@@H](CCC(N)=O)C(=O)N[C@@H](CC(=O)O)C(=O)N[C@@H](CC(C)C)C(=O)N[C@@H](CCCNC(=N)N)C(=O)N[C@@H](CCCNC(=N)N)C(=O)N[C@@H](CCCNC(=N)N)C(=O)N[C@@H](Cc1ccccc1)C(=O)N[C@@H](Cc1ccccc1)C(=O)N[C@@H](CC(C)C)C(=O)N[C@@H](Cc1c[nH]cn1)C(=O)N[C@@H](Cc1c[nH]cn1)C(=O)N[C@@H](CC(C)C)C(=O)N[C@H](C(=O)N[C@@H](C)C(=O)N[C@@H](CCC(=O)O)C(=O)N[C@H](C(=O)N[C@@H](Cc1c[nH]cn1)C(=O)N[C@H](C(=O)N[C@@H](C)C(N)=O)[C@@H](C)O)[C@@H](C)CC)[C@@H](C)CC)[C@@H](C)CC)[C@@H](C)CC [Compound No. 22] | 0.765 | –
CC[C@H](C)[C@H](N)C(=O)N[C@@H](CCC(N)=O)C(=O)N[C@@H](CC(C)C)C(=O)N[C@@H](CCSC)C(=O)N[C@@H](Cc1c[nH]cn1)C(=O)N[C@@H](C)C(=O)N[C@@H](CC(C)C)C(=O)NCC(=O)N[C@@H](CCCCN)C(=O)N[C@@H](CO)C(=O)N[C@H](C(=O)N[C@@H](CCC(N)=O)C(=O)N[C@@H](CC(=O)O)C(=O)N[C@@H](CC(C)C)C(=O)N[C@@H](CCCNC(=N)N)C(=O)N[C@@H](CCCNC(=N)N)C(=O)N[C@@H](CCCNC(=N)N)C(=O)N[C@@H](Cc1ccccc1)C(=O)N[C@@H](Cc1ccccc1)C(=O)N[C@@H](CC(C)C)C(=O)N[C@@H](Cc1c[nH]cn1)C(=O)N[C@@H](Cc1c[nH]cn1)C(=O)N[C@@H](CC(C)C)C(=O)N[C@H](C(=O)N[C@@H](C)C(=O)N[C@@H](CCC(=O)O)C(=O)N[C@H](C(=O)N[C@@H](Cc1c[nH]cn1)C(=O)N[C@H](C(=O)N[C@@H](C)C(N)=O)[C@@H](C)O)[C@@H](C)CC)[C@@H](C)CC)[C@@H](C)CC [Compound No. 18] | 1.97 | –
CCCC[C@H](NC(=O)[C@H](CCC(N)=O)NC(=O)[C@@H](N)[C@@H](C)CC)C(=O)N[C@@H](CCSC)C(=O)N[C@@H](Cc1c[nH]cn1)C(=O)N[C@@H](CC(=O)O)C(=O)N[C@@H](CCCCN)C(=O)NCC(=O)N[C@@H](CCCCN)C(=O)N[C@@H](CO)C(=O)N[C@H](C(=O)N[C@@H](CCC(N)=O)C(=O)N[C@@H](CC(=O)O)C(=O)N[C@@H](CC(C)C)C(=O)N[C@@H](CCCNC(=N)N)C(=O)N[C@@H](CCCNC(=N)N)C(=O)N[C@@H](CCCNC(=N)N)C(=O)N[C@@H](Cc1ccccc1)C(=O)N[C@@H](Cc1ccccc1)C(=O)N[C@@H](CC(C)C)C(=O)N[C@@H](Cc1c[nH]cn1)C(=O)N[C@@H](Cc1c[nH]cn1)C(=O)N[C@@H](CC(C)C)C(=O)N[C@H](C(=O)N[C@@H](C)C(=O)N[C@@H](CCC(=O)O)C(=O)N[C@H](C(=O)N[C@@H](Cc1c[nH]cn1)C(=O)N[C@H](C(=O)N[C@@H](C)C(N)=O)[C@@H](C)O)[C@@H](C)CC)[C@@H](C)CC)[C@@H](C)CC [Compound No. 14] | 0.922 | –
[Leu^11,D-Trp^12 ]-hPTHrP(7-34)-NH2 [(Leu11,D--Trp12)--hPTHrP(7-34)--NH2, reference compound] | 3.91 | –

Further lines, results first:

IC50 Ratio [1] | IC50 Ratio [2] | Molecule
– | 0.003 | CC[C@H](C)[C@H](NC(=O)[C@H](CC(C)C)NC(=O)[C@H](Cc1c[nH]cn1)NC(=O)[C@H](Cc1c[nH]cn1)NC(=O)[C@H](CC(C)C)NC(=O)[C@H](Cc1ccccc1)NC(=O)[C@H](Cc1ccccc1)NC(=O)[C@H](CCCNC(=N)N)NC(=O)[C@H](CCCNC(=N)N)NC(=O)[C@H](CCCNC(=N)N)NC(=O)[C@H](CC(C)C)NC(=O)[C@H](CC(=O)O)NC(=O)[C@H](CCC(N)=O)NC(=O)[C@@H](NC(=O)[C@H](CO)NC(=O)[C@H](CCCCN)NC(=O)CNC(=O)[C@H](CC(C)C)NC(=O)[C@H](CCC(N)=O)NC(=O)[C@H](Cc1c[nH]cn1)NC(=O)[C@H](CCSC)NC(=O)[C@H](CC(C)C)NC(=O)[C@H](CCC(N)=O)NC(=O)[C@@H](NC(=O)[C@H](CCC(=O)O)NC(=O)[C@@H](N)CO)[C@@H](C)CC)[C@@H](C)CC)C(=O)N[C@@H](C)C(=O)N[C@@H](CCC(=O)O)C(=O)N[C@H](C(=O)N[C@@H](Cc1c[nH]cn1)C(=O)N[C@H](C(=O)N[C@@H](C)C(N)=O)[C@@H](C)O)[C@@H](C)CC [Compound No. 2]
1.02 | – | CC[C@H](C)[C@H](NC(=O)[C@H](CC(C)C)NC(=O)[C@H](Cc1c[nH]cn1)NC(=O)[C@H](Cc1c[nH]cn1)NC(=O)[C@H](CC(C)C)NC(=O)[C@H](Cc1ccccc1)NC(=O)[C@H](Cc1ccccc1)NC(=O)[C@H](CCCNC(=N)N)NC(=O)[C@H](CCCNC(=N)N)NC(=O)[C@H](CCCNC(=N)N)NC(=O)[C@H](CC(C)C)NC(=O)[C@H](CC(=O)O)NC(=O)[C@H](CCC(N)=O)NC(=O)[C@@H](NC(=O)[C@H](CO)NC(=O)[C@H](CCCCN)NC(=O)CNC(=O)[C@H](CCCCN)NC(=O)[C@H](CC(=O)O)NC(=O)[C@H](Cc1c[nH]cn1)NC(=O)[C@H](CCSC)NC(=O)[C@H](CC(C)C)NC(=O)[C@H](CCC(N)=O)NC(=O)[C@@H](N)CC(C)C)[C@@H](C)CC)C(=O)N[C@@H](C)C(=O)N[C@@H](CCC(=O)O)C(=O)N[C@H](C(=O)N[C@@H](Cc1c[nH]cn1)C(=O)N[C@H](C(=O)N[C@@H](C)C(N)=O)[C@@H](C)O)[C@@H](C)CC [Compound No. 9]
2.24 | – | CCCCCCCCCCCCCC(=O)N[C@@H](CCC(N)=O)C(=O)N[C@@H](CC(C)C)C(=O)N[C@@H](CCSC)C(=O)N[C@@H](Cc1c[nH]cn1)C(=O)N[C@@H](CC(=O)O)C(=O)N[C@@H](CCCCN)C(=O)NCC(=O)N[C@@H](CCCCN)C(=O)N[C@@H](CO)C(=O)N[C@H](C(=O)N[C@@H](CCC(N)=O)C(=O)N[C@@H](CC(=O)O)C(=O)N[C@@H](CC(C)C)C(=O)N[C@@H](CCCNC(=N)N)C(=O)N[C@@H](CCCNC(=N)N)C(=O)N[C@@H](CCCNC(=N)N)C(=O)N[C@@H](Cc1ccccc1)C(=O)N[C@@H](Cc1ccccc1)C(=O)N[C@@H](CC(C)C)C(=O)N[C@@H](Cc1c[nH]cn1)C(=O)N[C@@H](Cc1c[nH]cn1)C(=O)N[C@@H](CC(C)C)C(=O)N[C@H](C(=O)N[C@@H](C)C(=O)N[C@@H](CCC(=O)O)C(=O)N[C@H](C(=O)N[C@@H](Cc1c[nH]cn1)C(=O)N[C@H](C(=O)N[C@@H](C)C(N)=O)[C@@H](C)O)[C@@H](C)CC)[C@@H](C)CC)[C@@H](C)CC [Compound No. 10]
– | 0.026 | CC[C@H](C)[C@H](NC(=O)[C@H](CC(C)C)NC(=O)[C@H](Cc1c[nH]cn1)NC(=O)[C@H](Cc1c[nH]cn1)NC(=O)[C@H](CC(C)C)NC(=O)[C@H](Cc1ccccc1)NC(=O)[C@H](Cc1ccccc1)NC(=O)[C@H](CCCNC(=N)N)NC(=O)[C@H](CCCNC(=N)N)NC(=O)[C@H](CCCNC(=N)N)NC(=O)[C@H](CC(C)C)NC(=O)[C@H](CC(=O)O)NC(=O)[C@H](CCC(N)=O)NC(=O)[C@@H](NC(=O)[C@H](CO)NC(=O)[C@H](CCCCN)NC(=O)CNC(=O)[C@H](CCCCN)NC(=O)[C@H](CC(=O)O)NC(=O)[C@H](Cc1c[nH]cn1)NC(=O)[C@H](CCSC)NC(=O)[C@H](CC(C)C)NC(=O)[C@H](CCC(N)=O)NC(=O)[C@@H](N)Cc1ccccc1)[C@@H](C)CC)C(=O)N[C@@H](C)C(=O)N[C@@H](CCC(=O)O)C(=O)N[C@H](C(=O)N[C@@H](Cc1c[nH]cn1)C(=O)N[C@H](C(=O)N[C@@H](C)C(N)=O)[C@@H](C)O)[C@@H](C)CC [Compound No. 8]
1.01 | – | IQLMHDKGKSIQDLRRRFFLHKLIAEIHTA-NH2 [Compound No. 20]
0.934 | – | IQLMHDKGKSIQDLRRRFFLRHLIAEIHTA-NH2 [Compound No. 19]
– | 1 | [Tyr^34 ]-hPTH (3-34)-NH2 [(Tyr34)--hPTH(3-34)--NH2, reference compound]
